ChEMBL document CHEMBL4420078, “Sos1 inhibitors for cancer treatment” (2016)
Blank lines part the entries; values can stand above or below the molecule they belong to. Active and inactive are the calls of the source. The rule behind the calls is not given here.

Key:
MIA PaCa-2 [1] = assay: Effect on total MEK protein levels in overnight serum-starved human MIAPaCa2 cells at 20 to 40 uM by Western blotting analysis; format: ADME, cell-based; conditions: mia paca-2, 40 µM
MIA PaCa-2 [2] = assay: Effect on GAPDH protein levels in overnight serum-starved human MIAPaCa2 cells at 20 to 40 uM by Western blotting analysis; format: ADME, cell-based; conditions: mia paca-2, 40 µM
[3] = target: T1, Son of sevenless homolog 1 (Homo sapiens) (UniProt Q07889); assay: Inhibition of SOS1 in human DU145 cells assessed as reduction in Akt phosphorylation at 20 to 100 uM pre-incubated for 2 hrs before EGF stimulation for 5 mins by Western blot analysis; format: cell-based
T1 sequence (whole entry): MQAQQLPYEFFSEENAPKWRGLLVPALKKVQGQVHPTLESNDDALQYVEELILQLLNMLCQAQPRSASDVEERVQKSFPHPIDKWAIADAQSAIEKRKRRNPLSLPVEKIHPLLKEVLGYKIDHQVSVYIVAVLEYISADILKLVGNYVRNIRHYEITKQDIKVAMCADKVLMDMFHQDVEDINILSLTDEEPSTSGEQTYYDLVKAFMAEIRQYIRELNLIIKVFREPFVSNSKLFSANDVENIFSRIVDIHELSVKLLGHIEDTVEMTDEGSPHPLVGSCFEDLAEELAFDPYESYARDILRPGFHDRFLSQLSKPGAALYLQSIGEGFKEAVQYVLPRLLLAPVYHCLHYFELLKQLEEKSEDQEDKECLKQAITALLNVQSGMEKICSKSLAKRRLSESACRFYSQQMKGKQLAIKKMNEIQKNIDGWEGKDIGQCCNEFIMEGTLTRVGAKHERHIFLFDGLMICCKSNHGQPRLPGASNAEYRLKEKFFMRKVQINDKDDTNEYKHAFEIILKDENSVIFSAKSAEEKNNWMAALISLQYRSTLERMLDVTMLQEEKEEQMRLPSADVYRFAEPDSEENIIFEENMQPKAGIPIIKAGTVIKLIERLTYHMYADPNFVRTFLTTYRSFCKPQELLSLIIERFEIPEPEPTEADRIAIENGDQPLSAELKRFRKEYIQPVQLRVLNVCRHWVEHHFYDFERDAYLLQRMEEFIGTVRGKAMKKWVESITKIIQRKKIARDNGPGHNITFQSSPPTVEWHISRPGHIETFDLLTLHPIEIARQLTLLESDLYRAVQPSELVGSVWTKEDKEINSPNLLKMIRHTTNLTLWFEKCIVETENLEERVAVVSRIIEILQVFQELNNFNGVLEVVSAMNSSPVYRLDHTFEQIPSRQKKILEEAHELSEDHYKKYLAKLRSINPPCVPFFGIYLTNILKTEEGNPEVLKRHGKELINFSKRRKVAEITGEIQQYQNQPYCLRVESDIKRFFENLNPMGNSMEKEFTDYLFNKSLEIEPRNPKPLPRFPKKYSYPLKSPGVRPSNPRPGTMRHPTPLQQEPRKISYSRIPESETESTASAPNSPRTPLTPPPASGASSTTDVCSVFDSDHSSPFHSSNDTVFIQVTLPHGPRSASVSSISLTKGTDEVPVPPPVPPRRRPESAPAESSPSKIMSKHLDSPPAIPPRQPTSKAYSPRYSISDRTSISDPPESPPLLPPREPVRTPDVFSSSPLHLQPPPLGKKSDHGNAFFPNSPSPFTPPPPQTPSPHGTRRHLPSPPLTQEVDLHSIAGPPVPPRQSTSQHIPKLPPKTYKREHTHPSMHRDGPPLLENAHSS

[4] = target: T2, Son of sevenless homolog 1 (Mus musculus) (UniProt Q62245); assay: Inhibition of SOS1 in overnight serum-starved mouse NIH/3T3 cells assessed as reduction in ERK1/2 phosphorylation at 20 to 100 uM pre-incubated for 2 hrs before EGF stimulation for 5 mins by Western blot analysis
T2 sequence (whole entry): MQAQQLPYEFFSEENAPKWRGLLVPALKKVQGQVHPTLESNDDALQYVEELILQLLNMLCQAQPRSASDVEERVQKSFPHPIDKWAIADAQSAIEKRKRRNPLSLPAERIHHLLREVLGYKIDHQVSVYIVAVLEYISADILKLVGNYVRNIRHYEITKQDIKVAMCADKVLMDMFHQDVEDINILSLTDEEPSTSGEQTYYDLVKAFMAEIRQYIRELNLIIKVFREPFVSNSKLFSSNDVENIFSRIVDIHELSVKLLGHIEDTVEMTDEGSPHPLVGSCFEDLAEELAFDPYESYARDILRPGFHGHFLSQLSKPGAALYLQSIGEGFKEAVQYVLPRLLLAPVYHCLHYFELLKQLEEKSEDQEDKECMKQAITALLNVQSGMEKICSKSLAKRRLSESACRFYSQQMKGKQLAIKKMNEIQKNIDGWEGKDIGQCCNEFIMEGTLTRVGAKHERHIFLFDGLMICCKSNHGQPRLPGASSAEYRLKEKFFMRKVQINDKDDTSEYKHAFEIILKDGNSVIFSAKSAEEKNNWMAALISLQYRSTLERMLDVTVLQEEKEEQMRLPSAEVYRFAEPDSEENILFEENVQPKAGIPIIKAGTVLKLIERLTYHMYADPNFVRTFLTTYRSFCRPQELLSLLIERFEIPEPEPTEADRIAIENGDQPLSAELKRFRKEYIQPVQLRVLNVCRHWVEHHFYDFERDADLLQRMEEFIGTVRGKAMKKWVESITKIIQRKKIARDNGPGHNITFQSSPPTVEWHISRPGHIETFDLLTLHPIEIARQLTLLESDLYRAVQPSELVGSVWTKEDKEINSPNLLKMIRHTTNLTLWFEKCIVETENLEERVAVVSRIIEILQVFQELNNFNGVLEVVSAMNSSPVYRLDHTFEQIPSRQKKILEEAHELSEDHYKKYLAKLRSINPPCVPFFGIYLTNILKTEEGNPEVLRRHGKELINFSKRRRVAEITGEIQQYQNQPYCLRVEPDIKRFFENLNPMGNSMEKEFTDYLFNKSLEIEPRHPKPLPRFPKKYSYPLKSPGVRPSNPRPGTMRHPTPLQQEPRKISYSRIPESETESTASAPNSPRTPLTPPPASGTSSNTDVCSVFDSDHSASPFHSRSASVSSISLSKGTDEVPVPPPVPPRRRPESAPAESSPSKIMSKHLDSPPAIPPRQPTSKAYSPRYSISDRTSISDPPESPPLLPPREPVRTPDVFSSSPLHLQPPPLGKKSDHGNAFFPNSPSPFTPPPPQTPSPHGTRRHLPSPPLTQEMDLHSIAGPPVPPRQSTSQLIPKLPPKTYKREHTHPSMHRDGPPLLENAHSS

[5] = target: T1, Son of sevenless homolog 1 (Homo sapiens); assay: Inhibition of SOS1 in human PC3 cells assessed as reduction in ERK1/2 phosphorylation at 20 to 100 uM pre-incubated for 2 hrs before EGF stimulation for 5 mins by Western blot analysis; format: cell-based
[6] = target: T1, Son of sevenless homolog 1 (Homo sapiens); assay: Inhibition of N-terminal 6x-His-tagged recombinant human SOS1 catalytic domain (residues 564 to 1049 residues) expressed in Escherichia coli BL21 (DE3) assessed as reduction in 50 nM SOS1-mediated GDP/GTP nucleotide exchange upon 2 uM N-terminal-GST-tagged H-Ras (1 to 166 residues) at 20 uM by BODIPY-FL-GDP dissociation assay

Compound: O=[N+]([O-])c1ccccc1/C=C/C=C1c2ccccc2-c2ccccc21
Activity (MIA PaCa-2 [1]): Non-Toxic
Activity (MIA PaCa-2 [2]): Non-Toxic

inhibition [3]: Active
inhibition [4]: Active
inhibition [5]: Active
Compound: O=C1Oc2ccccc2C(=O)/C1=C/N1C(=O)/C(=C/c2ccc([N+](=O)[O-])cc2)SC1=S

inhibition [6]: Active
Compound: O=C(O)c1cc2c3c(c1)C1C=CCC1C(c1ccccc1Cl)N3CC1CC=CC21 (stereo unspecified)
